In PubChem BioAssay (NCI):
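Step 1: Grow cells in 96-well plates. Step 2: Expose to compound for 48 hours at 5 concentrations. Step 3: Interpolate endpoints linearly; if unreached, use highest concentration. Abbreviation: GI50, concentration required for 50% inhibition of growth. TGI: concentration producing complete growth inhibition.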

Key:
Assay in all cases: inhibition of tumour cell growth, NCI panel, 48 h
[1] = tested on: 786-0 renal
[2] = tested on: A498 renal
[3] = tested on: A549 NSCLC
[4] = tested on: ACHN renal
[5] = tested on: BT-549 breast
[6] = tested on: CAKI-1 renal
[7] = tested on: CCRF-CEM leukemia
[8] = tested on: COLO 205 colon
[9] = tested on: DU-145 prostate
[10] = tested on: EKVX NSCLC
[11] = tested on: HCC-2998 colon
[12] = tested on: HCT-116 colon
[13] = tested on: HCT-15 colon
[14] = tested on: HL-60(TB) leukemia
[15] = tested on: HOP-62 NSCLC
[16] = tested on: HOP-92 NSCLC
[17] = tested on: HS 578T breast
[18] = tested on: HT29 colon
[19] = tested on: IGROV1 ovarian
[20] = tested on: K-562 leukemia
[21] = tested on: KM12 colon
[22] = tested on: LOX IMVI melanoma
[23] = tested on: M14 melanoma
[24] = tested on: MALME-3M melanoma
[25] = tested on: MCF7 breast
[26] = tested on: MDA-MB-231 breast
[27] = tested on: MDA-MB-435
[28] = tested on: MDA-MB-468 breast
[29] = tested on: MOLT-4 leukemia
[30] = tested on: NCI-H226 lung
[31] = tested on: NCI-H23 lung
[32] = tested on: NCI-H460 lung
[33] = tested on: NCI-H522 lung
[34] = tested on: NCI/ADR-RES ovarian
[35] = tested on: OVCAR-3 ovarian
[36] = tested on: OVCAR-4 ovarian
[37] = tested on: OVCAR-5 ovarian
[38] = tested on: OVCAR-8 ovarian
[39] = tested on: PC-3 prostate
[40] = tested on: RPMI-8226 leukemia
[41] = tested on: RXF 393 renal
[42] = tested on: SF-268 CNS
[43] = tested on: SF-295 CNS
[44] = tested on: SF-539 CNS
[45] = tested on: SK-MEL-2 melanoma
[46] = tested on: SK-MEL-28 melanoma
[47] = tested on: SK-MEL-5 melanoma
[48] = tested on: SK-OV-3 ovarian
[49] = tested on: SN12C renal
[50] = tested on: SNB-19 CNS
[51] = tested on: SNB-75 CNS
[52] = tested on: SR leukemia
[53] = tested on: SW-620 colon
[54] = tested on: T-47D breast
[55] = tested on: TK-10 renal
[56] = tested on: U251 CNS
[57] = tested on: UACC-257 melanoma
[58] = tested on: UACC-62 melanoma
[59] = tested on: UO-31 renal

O=C(CNc1nc(-c2ccccc2)cs1)Nc1ccccc1
GI50 [1]: 2.63 µM | TGI [1]: 5.48 µM | GI50 [2]: 11.1 µM | TGI [2]: 23.5 µM | GI50 [3]: 3.25 µM | TGI [3]: 13.5 µM | GI50 [4]: 2.6 µM | TGI [4]: 10.6 µM | GI50 [5]: 2.25 µM | TGI [5]: 4.23 µM | GI50 [6]: 2.2 µM | TGI [6]: 10.6 µM | GI50 [7]: 1.88 µM | TGI [7]: > 100 µM | GI50 [8]: 2.16 µM | TGI [8]: 4.57 µM | GI50 [9]: 3.74 µM | TGI [9]: 13.4 µM | GI50 [10]: 1.58 µM | TGI [10]: 3.14 µM | GI50 [11]: 1.77 µM | TGI [11]: 3.88 µM | GI50 [12]: 1.81 µM | TGI [12]: 5.75 µM | GI50 [13]: 1.61 µM | TGI [13]: 3.36 µM | GI50 [14]: 1.83 µM | TGI [14]: 6.67 µM | GI50 [15]: 2.17 µM | TGI [15]: 6.31 µM | GI50 [16]: 3.47 µM | TGI [16]: 16.5 µM | GI50 [17]: 3.04 µM | TGI [17]: > 100 µM | GI50 [18]: 2.06 µM | TGI [18]: 4.08 µM | GI50 [19]: 1.5 µM | TGI [19]: 4.87 µM | GI50 [20]: 2.32 µM | TGI [20]: > 100 µM | GI50 [21]: 3.87 µM | TGI [21]: 14.9 µM | GI50 [22]: 1.21 µM | TGI [22]: 2.7 µM | GI50 [23]: 1.52 µM | TGI [23]: 3.49 µM | GI50 [24]: 1.54 µM | TGI [24]: 3.23 µM | GI50 [25]: 1.4 µM | TGI [25]: 3.41 µM | GI50 [26]: 1.93 µM | TGI [26]: 7.28 µM | GI50 [27]: 2.05 µM | TGI [27]: 5.32 µM | GI50 [28]: 1.55 µM | TGI [28]: 3.2 µM | GI50 [29]: 1.83 µM | TGI [29]: 7.46 µM | GI50 [30]: 1.94 µM | TGI [30]: 7.99 µM | GI50 [31]: 1.48 µM | TGI [31]: 3.15 µM | GI50 [32]: 2.94 µM | TGI [32]: 11.8 µM | GI50 [33]: 1.53 µM | TGI [33]: 3.02 µM | GI50 [34]: 2.29 µM | TGI [34]: 6.16 µM | GI50 [35]: 1.93 µM | TGI [35]: 4.36 µM | GI50 [36]: 4.88 µM | TGI [36]: 18.1 µM | GI50 [37]: 2.95 µM | TGI [37]: 7.03 µM | GI50 [38]: 2.96 µM | TGI [38]: 14.9 µM | GI50 [39]: 2.96 µM | TGI [39]: 30.3 µM | GI50 [40]: 2.29 µM | TGI [40]: 80.9 µM | GI50 [41]: 1.85 µM | TGI [41]: 3.86 µM | GI50 [42]: 3.33 µM | TGI [42]: 22.9 µM | GI50 [43]: 2.48 µM | TGI [43]: 11.6 µM | GI50 [44]: 1.77 µM | TGI [44]: 3.22 µM | GI50 [45]: 1.73 µM | TGI [45]: 4.29 µM | GI50 [46]: 2.56 µM | TGI [46]: 6.81 µM | GI50 [47]: 1.62 µM | TGI [47]: 2.98 µM | GI50 [48]: 2.92 µM | TGI [48]: 10.2 µM | GI50 [49]: 1.54 µM | TGI [49]: 3.44 µM | GI50 [50]: 1.82 µM | TGI [50]: 4.16 µM | GI50 [51]: 1.05 µM | TGI [51]: 6.68 µM | GI50 [52]: 1.42 µM | TGI [52]: > 100 µM | GI50 [53]: 2.46 µM | TGI [53]: 6.04 µM | GI50 [54]: 2.57 µM | TGI [54]: 10.2 µM | GI50 [55]: 4.64 µM | TGI [55]: 12.4 µM | GI50 [56]: 1.56 µM | TGI [56]: 3.34 µM | GI50 [57]: 2.05 µM | TGI [57]: 8.33 µM | GI50 [58]: 1.14 µM | TGI [58]: 2.58 µM | GI50 [59]: 2.37 µM | TGI [59]: 12.9 µM
